Here are results for 1 molecule from patent US20140308313A1 (priority 2006, published 2014).

Molecules are shown by their SMILES.

For this assay, the system named is IgG1 and IgG2a antibodies to TT. Further details: species or system mice. As to conditions: mouse, in vivo.

Consider `CCCCCCCCCCCCCCCCCCCCCCCCCC(=O)N[C@@H](CO[C@H]1OC(CO)[C@H](O)C(O)C1O)[C@H](O)[C@@H](O)CCCCCCCCCCCCCC` (stereo partly drawn) [α-GC, α-galactosylceramide], for which the “production of IgG1 and IgG2a antibodies compared to CFA, CpG, MF59 and Alum” value was “overall as potent as the above benchmark adjuvants”.
